{
  "source": "patent US20080038838A1",
  "about": "“Dioxin-Binding Material and Method of Detecting or Quantifying Dioxin” (Towa Kagaku Co., Ltd., priority 2003, published 2008)",
  "key": {"[1]": {"experiment": "method of competitive dioxin binding on bead (2,3,7,8-TeCDD)", "details": "for capability of detecting 2,3,7,8-TeCDD compared with DB2: 30% 1,4-dioxane solvent", "procedure": "(§1) 1 ml of a screening solvent containing 4 nM NBD-labeled dichlorophenol and 0-100 nM of a substance to be detected was prepared in a glass vial, and then three dioxin-binding peptide beads were put into the screening solvent. The resulting mixture was incubated, with mild shaking, overnight at room temperature, and then fluorescent microscope images thereof were recorded. The average fluorescence intensity of each bead was calculated from the recorded images. Calculation of the average fluorescence intensity was performed with an image analysis/measurement software, “Image-Pro Plus” (Planetron, Inc.). When competitive binding of the dichlorophenol with a dioxin occurs, the fluorescence intensity of each bead decreases depending on the concentration of the dioxin. Such a method of measuring the dioxin concentration utilizing the quenching phenomenon of the beads was termed “the method of competitive dioxin binding on bead”.\nThe DB2 peptide was evaluated for affinity to dioxins by the method of competitive dioxin binding on bead. FIGS. 6 (A) and 6 (B) show the results of tests conducted in a solvent containing 30% 1,4-dioxane. The relationship between dioxin concentration and average fluorescence intensity is plotted in FIG. 6 (A). As shown in the figure, declining sigmoid curves, which are characteristic of the competitive binding, were obtained. The curves were fitted using the four-parameter logistic equation, y=(a−d)/(1+(x/c)^b)+d, which is an empirical equation typically employed in competitive ELISA (Eiji Ishikawa, “Enzyme Immunoassay (3rd Edition)”, IGAKU-SHOIN).\n(§2) The quenching ratio was calculated using the equation shown below. The beads were evaluated for affinity with the substances detected based on the values of quenching ratios.\n(§3) quenching ratio=(fluorescence intensity 1−fluorescence intensity 2)/fluorescence intensity 1×100(%)\nThe binding constants of the DB2 peptide were calculated using the results of the above equation. Fitting was performed based on the theoretical equation for one-to-one binding of a receptor with a ligand as shown below:\n(§4) Tests were conducted on the above-mentioned peptides by the method of competitive dioxin binding on bead described in Example 2, using a 30% 1,4-dioxane solvent. […] All the four kinds of single residue-substituted peptides were evaluated for dioxin binding capability by the method of competitive dioxin binding on bead."}, "[2]": {"experiment": "fluorescent staining of peptide beads with NBD-labeled dichlorophenol", "assay_type": "binding", "details": "30% 1,4-dioxane solvent (FIG. 10)", "procedure": "About 2.5 million peptide beads were used for screening, the number being equal to the number of combinations of all the sequences of peptides comprising 5 amino acid residues. The primary screening was conducted in a screening solvent (a 10 mM phosphate buffer containing 20% 1,4-dioxane (pH: 8)) containing 4 nM NBD-labeled dichlorophenol. 20 ml of the buffer solution was first mixed with about 50 mg of the peptide beads, and the mixture was subsequently incubated overnight, with mild shaking, in a petri dish at room temperature. A fraction of fluorescently stained peptide beads observed by a fluorescent microscope was collected with a micropipette. These peptide beads were transferred into a micro test tube containing 50 or 100% 1,4-dioxane, and were then incubated overnight at room temperature, i.e., washing with 50 or 100% dioxane overnight at room temperature. Peptide beads which were unable to be washed, on which the NBD-labeled dichlorophenol was unspecifically adsorbed, were excluded. Peptide beads that could be washed were re-stained with 1 nM NBD-labeled dichlorophenol. In order to measure the fluorescence intensity, fluorescent microscope images of the peptide beads were recorded with a digital camera (FIG. 4).\nas §1\nA library of twenty-one kinds of single amino acid-substituted peptides shown in FIG. 8 was constructed in order to evaluate the importance of each amino acid of the obtained oligopeptides, and to optimize the sequences. […]\nas §4"}, "[3]": {"experiment": "method of competitive dioxin binding on bead (2,3,7-TriCDD)", "procedure": "1 ml of a screening solvent containing 4 nM NBD-labeled dichlorophenol and 0-100 nM of a substance to be detected was prepared in a glass vial, and then three dioxin-binding peptide beads were put into the screening solvent. The resulting mixture was incubated, with mild shaking, overnight at room temperature, and then fluorescent microscope images thereof were recorded. The average fluorescence intensity of each bead was calculated from the recorded images. Calculation of the average fluorescence intensity was performed with an image analysis/measurement software, “Image-Pro Plus” (Planetron, Inc.). When competitive binding of the dichlorophenol with a dioxin occurs, the fluorescence intensity of each bead decreases depending on the concentration of the dioxin. […]\nThe DB2 peptide was evaluated for affinity to dioxins by the method of competitive dioxin binding on bead. […] The relationship between dioxin concentration and average fluorescence intensity is plotted in FIG. 6 (A). […]\nas §2, §3\nThe binding constants of the DB2 peptide were calculated using the results of the above equation. […]"}, "[4]": {"experiment": "secondary screening of peptide beads: fluorescence decrease by competition with 2,3,7-TriCDD", "assay_type": "binding", "details": "1 nM NBD-labeled dichlorophenol, 10 mM phosphate buffer pH 8 with 20% 1,4-dioxane", "source_text": "A peptide library was constructed by split-and-pool synthesis, one of the typical techniques of combinatorial chemistry, using beads for peptide solid-phase synthesis. According to the present method, a peptide of one kind of sequence is synthesized on a single bead. […] Primary screening involved screening of fluorescently stained peptide beads, using a composite (FIG. 3) obtained by labeling 3,4-dichlorophenol, which has an analogous structure to dioxins, with NBD as a fluorescent material.\nAbout 2.5 million peptide beads were used for screening, the number being equal to the number of combinations of all the sequences of peptides comprising 5 amino acid residues. […] In order to measure the fluorescence intensity, fluorescent microscope images of the peptide beads were recorded with a digital camera (FIG. 4).\nThe aforementioned washable peptide beads were put into 1 ml of a screening solvent containing 1 nM NBD-labeled dichlorophenol and 10 or 100 nM 2,3,7-trichlorodibenzo-p-dioxin (2,3,7-TriCDD). The mixture was incubated overnight with mild shaking at room temperature, and was then transferred onto a glass petri dish, and fluorescent microscope images thereof were recorded. The obtained images were compared with the images recorded in the previous test so as to screen decreased beads. […]"}, "[5]": {"details": "30% 1,4-dioxane, 4 nM NBD-labeled dichlorophenol, 0-100 nM substance"}, "[6]": {"details": "peptide beads, solvent containing 30% 1,4-dioxane, fit of quenching ratio to one-to-one binding equation"}},
  "note": "“And” between values parts separate entries of the source, which are not always exact repeats. Identical values can stand only once. “Also recorded” adds a separate entry of the source. Square brackets hold non-standard residues; d marks the D form. Ends that are not written are not given here. Cha = N[C@@H](CC1CCCCC1)C(=O)O; Phg = N[C@H](C(=O)O)c1ccccc1; Nva = CCC[C@H](N)C(=O)O",
  "data": [
    {"substance": "Phe Leu Asp Gln Nva (FLDQ[Nva]) [SEQ ID No. 24]", "values": [
      {"measurement": "capability of detecting 2,3,7,8-TeCDD compared with DB2", "setting": "[1]", "value": "equal to or more than that of DB2"},
      {"measurement": "fluorescence intensity when stained, compared with DB2 peptide", "setting": "[2]", "value": "equal to or greater than that of the DB2 peptide"}
    ]},
    {"substance": "Cha Leu Asp Gln Val ([Cha]LDQV) [SEQ ID No. 5]", "values": [
      {"measurement": "capability of detecting 2,3,7,8-TeCDD compared with DB2", "setting": "[1]", "value": "equal to or more than that of DB2"},
      {"measurement": "fluorescence intensity when stained, compared with DB2 peptide", "setting": "[2]", "value": "equal to or greater than that of the DB2 peptide"}
    ]},
    {"substance": "Phe Leu Asp Gln Leu (FLDQL) [SEQ ID No. 23]", "values": [
      {"measurement": "capability of detecting 2,3,7,8-TeCDD compared with DB2", "setting": "[1]", "value": "equal to or more than that of DB2"},
      {"measurement": "fluorescence intensity when stained, compared with DB2 peptide", "setting": "[2]", "value": "equal to or greater than that of the DB2 peptide"}
    ]},
    {"substance": "Phe-Leu-Asp-Gln-Val (FLDQV) [DB2]", "values": [
      {"measurement": "2,3,7,8-TeCDD concentration that can be detected", "setting": "[1]; 30% 1,4-dioxane", "value": "1 nM and about 0.3 ng/ml"},
      {"measurement": "concentration-dependent quenching by 2,3,7,8-TeCDD", "setting": "[1]; [5]", "value": "Concentration-dependent quenching was observed"},
      {"measurement": "affinity (binding constant Ka) for 2,3,7,8-TeCDD", "setting": "[1]; [6]", "value": "1.7e+09", "unit": "M⁻¹"},
      {"measurement": "concentration-dependent quenching by 2,3,7-TriCDD", "setting": "[3]; [5]", "value": "Concentration-dependent quenching was observed"},
      {"measurement": "affinity (binding constant Ka) for 2,3,7-TriCDD", "setting": "[3]; [6]", "value": "2e+08", "unit": "M⁻¹"},
      {"measurement": "quenching by competition with 10 nM 2,3,7-TriCDD", "setting": "[4]", "value": "confirmed"}
    ]},
    {"substance": "Phe Leu Asp Gln Phg (FLDQ[Phg]) [SEQ ID No. 22]", "values": [
      {"measurement": "2,3,7,8-TeCDD concentration that can be detected", "setting": "[1]; 30% 1,4-dioxane", "value": "0.15 nM and 0.05 ng/ml"},
      {"measurement": "capability of detecting 2,3,7,8-TeCDD compared with DB2", "setting": "[1]", "value": "equal to or more than that of DB2"},
      {"measurement": "detection sensitivity to 2,3,7,8-TeCDD relative to DB2", "setting": "[1]; 30% dioxane solvent", "value": "about ten times greater than that of DB2; also recorded: about ten times higher than that of DB2"},
      {"measurement": "fluorescence intensity when stained, compared with DB2 peptide", "setting": "[2]", "value": "equal to or greater than that of the DB2 peptide"}
    ]},
    {"substance": "Phe-Leu-Asp-Gln-Ile (FLDQI) [DB1]", "values": [
      {"measurement": "capability of detecting 2,3,7,8-TeCDD compared with DB2", "setting": "[1]", "value": "equal to or more than that of DB2"},
      {"measurement": "quenching by competition with 10 nM 2,3,7-TriCDD", "setting": "[4]", "value": "confirmed"}
    ]}
  ]
}
